Assay results from patent publication US5432165A, “Methods for the treatment of infection caused by Hepatitis B virus (HBV)” (priority 1992, dated 1995).
Like-named read-outs stand apart in the source and are kept apart here.

Legend:
[1] = Peak and trough plasma levels of FIAU and FAU by HPLC; assay type: in vivo, human; details: in vivo
Excerpt: Additionally at Baseline, archive plasma samples were taken.

[2] = test system: woodchuck hepatitis virus; details: cited from earlier work
[3] = Stability in an acid environment; assay type: physicochemical; details: such as is found in the human stomach
[4] = test system: CMV; details: read-out: in vitro ED90; cited from earlier work
[5] = cited from earlier work
[6] = target: DNA polymerase enzyme of woodchuck hepatitis virus (Woodchuck hepatitis B virus, UniProt P03160); details: read-out: concentration inhibiting DNA polymerase activity by 50 percent; cited from earlier work
Sequence of DNA polymerase enzyme of woodchuck hepatitis virus (P03160 whole entry): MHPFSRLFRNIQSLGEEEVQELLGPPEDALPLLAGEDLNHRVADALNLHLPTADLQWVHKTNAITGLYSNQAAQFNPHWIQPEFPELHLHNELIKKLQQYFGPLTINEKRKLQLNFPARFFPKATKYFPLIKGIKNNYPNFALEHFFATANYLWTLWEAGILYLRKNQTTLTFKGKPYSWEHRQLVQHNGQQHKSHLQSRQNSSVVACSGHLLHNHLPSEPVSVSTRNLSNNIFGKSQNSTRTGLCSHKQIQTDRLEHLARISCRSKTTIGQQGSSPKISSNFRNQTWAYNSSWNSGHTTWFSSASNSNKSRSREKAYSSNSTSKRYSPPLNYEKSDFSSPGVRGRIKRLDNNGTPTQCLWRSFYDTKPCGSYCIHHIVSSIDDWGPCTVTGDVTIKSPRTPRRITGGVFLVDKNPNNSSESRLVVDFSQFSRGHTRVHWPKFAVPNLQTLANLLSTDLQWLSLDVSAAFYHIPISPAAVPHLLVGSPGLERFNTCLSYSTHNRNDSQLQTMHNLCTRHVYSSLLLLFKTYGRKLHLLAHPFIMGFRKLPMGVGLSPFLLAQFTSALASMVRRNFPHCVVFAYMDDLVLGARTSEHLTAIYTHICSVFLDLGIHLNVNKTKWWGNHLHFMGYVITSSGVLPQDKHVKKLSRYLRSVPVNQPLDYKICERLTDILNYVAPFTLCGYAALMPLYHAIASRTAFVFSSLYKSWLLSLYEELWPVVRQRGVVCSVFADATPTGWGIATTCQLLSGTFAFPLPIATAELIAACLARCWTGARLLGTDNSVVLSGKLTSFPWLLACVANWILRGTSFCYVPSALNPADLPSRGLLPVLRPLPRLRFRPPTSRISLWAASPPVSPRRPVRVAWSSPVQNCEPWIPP

[7] = test system: HSV-1; details: read-out: in vitro ED90; cited from earlier work
[8] = typical; read-out: cellular toxicity concentration (ID50); cited from earlier work
[9] = target: DNA polymerase enzyme of human hepatitis B virus (Hepatitis B virus genotype D subtype ayw, UniProt P03156); details: read-out: concentration inhibiting DNA polymerase activity by 50 percent; cited from earlier work
Sequence of DNA polymerase enzyme of human hepatitis B virus (P03156 whole entry): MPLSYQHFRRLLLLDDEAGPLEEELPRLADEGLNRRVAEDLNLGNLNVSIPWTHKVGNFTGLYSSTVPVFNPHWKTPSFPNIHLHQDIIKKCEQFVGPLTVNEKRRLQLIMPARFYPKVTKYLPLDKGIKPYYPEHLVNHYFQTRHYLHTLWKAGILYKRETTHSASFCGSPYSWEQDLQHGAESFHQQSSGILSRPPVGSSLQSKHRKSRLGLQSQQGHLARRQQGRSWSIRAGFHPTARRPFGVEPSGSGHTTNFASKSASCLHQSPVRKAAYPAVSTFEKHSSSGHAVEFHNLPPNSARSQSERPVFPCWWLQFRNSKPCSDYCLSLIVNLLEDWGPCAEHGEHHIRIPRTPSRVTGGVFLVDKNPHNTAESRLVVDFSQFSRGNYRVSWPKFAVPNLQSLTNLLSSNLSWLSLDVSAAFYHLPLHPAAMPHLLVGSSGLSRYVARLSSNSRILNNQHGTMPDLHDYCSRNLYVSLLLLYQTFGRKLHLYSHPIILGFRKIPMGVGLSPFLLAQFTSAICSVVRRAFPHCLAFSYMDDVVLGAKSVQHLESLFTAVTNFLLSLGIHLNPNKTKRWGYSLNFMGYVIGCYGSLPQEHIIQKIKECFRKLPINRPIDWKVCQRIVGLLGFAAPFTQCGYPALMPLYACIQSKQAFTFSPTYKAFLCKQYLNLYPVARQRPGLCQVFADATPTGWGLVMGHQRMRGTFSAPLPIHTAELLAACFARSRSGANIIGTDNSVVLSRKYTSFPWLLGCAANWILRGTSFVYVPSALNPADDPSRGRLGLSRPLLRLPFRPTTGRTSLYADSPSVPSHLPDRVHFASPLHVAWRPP

[10] = test system: hepatitis B virus; details: cited from earlier work; for HBV markers after dosing was stopped: chronic HBV patients
[11] = chronic type therapy at HBV DNA suppressive doses

Compound: O=c1ccn([C@@H]2O[C@H](CO)[C@@H](O)[C@@H]2F)c(=O)[nH]1 [FAU, 1-(2'-deoxy-2'-fluoro-β-D-arabinofuranosyl)uracil]
- FAU plasma values (rarely exceeded) ([1]; human, po, 1 mg/kg/day): ≤ 0.15 µg/mL
- FAU plasma values after the initial dose [1]: almost always undetectable

Compound: Nc1nc(=O)n([C@@H]2O[C@H](CO)[C@@H](O)[C@@H]2F)cc1I [FIAC, 1-(2'-deoxy-2'-fluoro-β-D-arabinofuranosyl)-5-iodocytosine]
- suppression of viral polymerase and DNA ([2]; FIAC 20 mg/kg-day for 7 days): Rapid, complete and persistent suppression
- stability in an acid environment [3]: stable in an acid environment
- EC90 [4]: ~500 nM
- accumulation in the plasma ([5]; month long TID dosing of FIAC): neither FIAC, FIAU, or their metabolites accumulated in the plasma
- absorption following oral administration ([5]; oral FIAC, patients): nearly completely absorbed
- conversion of FIAC to FIAU ([5]; oral FIAC, patients): very rapidly converted to FIAU
- FIAC in plasma two hours after dosing ([5]; oral FIAC): almost never detected
- IC50 [6]: 50 to 100 nM
- EC90 [7]: ~50 nM
- CC50 [8]: ~10 µM
- IC50 [9]: 50 to 100 nM

Compound: Nc1ncnc2c1ncn2[C@@H]1O[C@H](COP(=O)(O)O)[C@@H](O)[C@@H]1O [ara-AMP]
- suppression of viral DNA ([2]; similar dose given for 14 days): suppressed viral DNA but was followed by a rapid rebound to levels above baseline
- HBV markers after dosing was stopped [10]: very rapidly rebounded to baseline levels and above
- HBV markers after dosing was stopped ([10]; listed as Ara-AMP): rapid rebound of DNA levels to pretreatment levels after 10-28 days of therapy is the norm
- toxicity on continued administration [10, 11]: intolerably toxic
- toxicity on continued administration ([10]; human, in vivo): too toxic (persistent and severe neuromuscular pain)

Compound: Nc1ncnc2c1ncn2[C@@H]1O[C@H](CO)[C@@H](O)[C@@H]1O [ara-A]
- HBV markers after dosing was stopped [10]: very rapidly rebounded to baseline levels and above
- toxicity on continued administration [10, 11]: too toxic (persistent and severe neuromuscular pain)

Compound: interferon-alpha
- patients with major and sustained decreases in HBV DNA ([10]; HBeAg positive chronic HBV infection, therapy for months): less than half of patients
- patient population in which effective ([10]; reported): effective only in non-HIV infected patients with baseline entry serum HBV DNA levels less than 200 pg/ml
